Data published in paper PMC8426359, “Use of a small molecule integrin activator as a systemically administered vaccine adjuvant in controlling Chagas disease” (NPJ Vaccines, 2021).
pEC50: −log10 of the molar value.

Biological target: T1, integrin α4β1 (very late activation antigen-4, VLA-4) (Homo sapiens, UniProt P05556+P13612)
T1 construct: gene ITGA4; endogenous integrin on Jurkat cells; with integrin β1 (ITGB1)
Assay: static adhesion of Jurkat cells to VCAM-1; blocked by anti-α[…] or anti-β[…] mAb
Format: cell-based

T1 sequence (P13612 34-1032): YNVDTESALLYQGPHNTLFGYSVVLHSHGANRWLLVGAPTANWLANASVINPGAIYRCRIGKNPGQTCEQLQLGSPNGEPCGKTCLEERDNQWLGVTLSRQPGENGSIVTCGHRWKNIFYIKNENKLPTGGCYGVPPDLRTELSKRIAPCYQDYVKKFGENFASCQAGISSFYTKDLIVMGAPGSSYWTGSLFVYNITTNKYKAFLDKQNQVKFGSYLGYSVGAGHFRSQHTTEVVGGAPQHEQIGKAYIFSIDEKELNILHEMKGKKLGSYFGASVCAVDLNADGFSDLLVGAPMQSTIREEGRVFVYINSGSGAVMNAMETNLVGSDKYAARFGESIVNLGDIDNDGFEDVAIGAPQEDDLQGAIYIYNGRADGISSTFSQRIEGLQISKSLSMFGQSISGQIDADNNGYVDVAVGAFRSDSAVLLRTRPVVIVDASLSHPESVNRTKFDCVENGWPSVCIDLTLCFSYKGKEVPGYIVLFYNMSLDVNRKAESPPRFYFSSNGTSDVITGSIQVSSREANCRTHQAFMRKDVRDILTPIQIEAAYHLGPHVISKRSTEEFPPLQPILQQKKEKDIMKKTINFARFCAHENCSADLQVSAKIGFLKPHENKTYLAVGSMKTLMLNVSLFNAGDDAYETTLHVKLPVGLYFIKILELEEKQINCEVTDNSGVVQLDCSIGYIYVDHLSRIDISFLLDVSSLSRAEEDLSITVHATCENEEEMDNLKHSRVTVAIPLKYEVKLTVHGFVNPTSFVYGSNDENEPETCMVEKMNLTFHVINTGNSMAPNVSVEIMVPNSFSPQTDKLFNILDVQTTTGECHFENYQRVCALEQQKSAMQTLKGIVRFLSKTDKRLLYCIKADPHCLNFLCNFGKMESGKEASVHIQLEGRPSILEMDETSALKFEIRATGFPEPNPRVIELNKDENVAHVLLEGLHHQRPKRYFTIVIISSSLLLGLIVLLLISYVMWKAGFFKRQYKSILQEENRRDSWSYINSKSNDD
T1 sequence (P05556 21-798): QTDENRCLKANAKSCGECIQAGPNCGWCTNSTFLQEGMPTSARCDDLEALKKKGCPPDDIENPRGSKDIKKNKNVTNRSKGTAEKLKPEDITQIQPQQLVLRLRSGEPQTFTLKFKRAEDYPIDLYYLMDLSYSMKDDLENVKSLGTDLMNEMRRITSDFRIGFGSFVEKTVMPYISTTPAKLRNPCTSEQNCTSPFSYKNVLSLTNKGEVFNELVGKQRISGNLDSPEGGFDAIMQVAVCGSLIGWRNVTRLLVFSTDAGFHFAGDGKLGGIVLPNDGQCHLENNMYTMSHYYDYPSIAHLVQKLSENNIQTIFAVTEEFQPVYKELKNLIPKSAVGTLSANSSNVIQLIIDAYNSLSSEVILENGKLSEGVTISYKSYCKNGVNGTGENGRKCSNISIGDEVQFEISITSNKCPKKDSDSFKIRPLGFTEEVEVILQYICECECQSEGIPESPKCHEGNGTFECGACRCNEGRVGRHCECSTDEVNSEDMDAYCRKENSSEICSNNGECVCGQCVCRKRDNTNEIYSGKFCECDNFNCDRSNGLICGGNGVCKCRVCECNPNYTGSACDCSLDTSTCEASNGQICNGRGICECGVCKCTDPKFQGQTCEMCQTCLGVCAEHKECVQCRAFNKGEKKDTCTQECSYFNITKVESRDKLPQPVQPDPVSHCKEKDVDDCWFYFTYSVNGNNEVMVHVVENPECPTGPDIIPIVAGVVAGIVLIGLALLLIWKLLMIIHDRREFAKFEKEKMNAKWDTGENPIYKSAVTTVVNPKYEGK

pEC50: 5.70
Structure (SMILES): O=C(OCCOCCOCCOC(=O)N(Cc1cccs1)Cc1cccs1)N(Cc1cccs1)Cc1cccs1 [7HP349]
